Experimental findings from publication PMC12040169 (PLOS Biology, 2025) are described below.

This data set is described as follows: in vitro. As to conditions: human, hela cells, % viability.

In general, viability refers to a read-out of living cells in per cent, often relative to untreated cells. On to `O=C(CN1CCSCC1)NNC(=S)Nc1ccccc1` [CBK262445], for which the viability at 28.5 h, 10 µM worked out at 102%.

Consider `Cc1cc(C)n(CC2CN(CC(=O)NCc3cccs3)CCO2)n1` (stereo not drawn) [CBK304902], for which the viability at 28.5 h, 10 µM was determined as 109%. Turning to `CCN(CC)C(=O)CSc1nnc[nH]1` [CBK026212], the viability at 28.5 h, 10 µM amounted to 93.3%.

`CCNC(=O)C1CCN(Cc2c[nH]nc2-c2ccc(F)cc2)C1` (stereo not drawn) [CBK307438]: the viability at 28.5 h, 10 µM came out at 90%.

With `Cc1cc(NC(=O)c2c(F)cccc2F)c2ccccc2n1` [CBK122737], the viability at 28.5 h, 10 µM worked out at 92.7%.

Consider `COc1ccc(C(=O)Nc2cnn(CCCC(=O)O)c2)cc1` [CBK270052], for which the viability at 28.5 h, 10 µM was found to be 89.7%. For `O=C(CN1CCN(C(c2ccccc2)c2ccccc2)CC1)Nc1c2c(nc3ccccc13)CCC2` [CBK278299G], the viability at 28.5 h, 10 µM was determined as 92.7%. On the same count and under the same terms, with `CN(C)Cc1c(O)ccc2occ(C(O)c3ccccc3)c12` (stereo not drawn) [CBK261313] the figure was 104%. On the same count and under the same terms, with `CN(Cc1cc(C(C)(C)C)c(O)c(C(C)(C)C)c1)Cc1cc(C(C)(C)C)c(O)c(C(C)(C)C)c1` [CBK261980] the figure was 97%; with `O=C(NCn1nnc2ccccc21)c1ccccc1` [CBK056950], 93.6%. The same measure, in the same setting: with `CN1CCOc2ccccc2C(=O)NC/C=C/CC2(CCN(C(=O)c3ccc(F)cc3)CC2)C1=O` [CBK292055] the figure was 92%; with `O=C(COc1ccc(S(=O)(=O)Nc2ccc(Cl)cc2)cc1)Nc1ccccc1F` [CBK268427], 108%; with `c1csc(-c2cn3ccnc3c(NCC3CC3)n2)c1` [CBK066754], 93.7%.

Regarding `Cc1nnc(NCCN2CCOCC2)nc1O` [CBK267912], the viability at 28.5 h, 10 µM was 98.5%.

As for `CCc1c(C)nc2c(C(=O)NCCOC)cnn2c1C` [CBK162143], the viability at 28.5 h, 10 µM turned out to be 93.9%.

Regarding `CCOc1ccc(S(=O)(=O)Nc2cnccn2)cc1` [CBK270313], the viability at 28.5 h, 10 µM was 121%. Still for that read-out and setting: the same measure for `O=C(CSc1nnc(-c2ccncc2)n1C1CCCCC1)Nc1ncc2c(n1)CC(c1ccccc1)CC2=O` (stereo not drawn) [CBK266177]: 94.3%; for `O=C(Nc1cccc2cccnc12)c1sc2ccccc2c1Cl` [CBK262132]: 98.8%; for `CN(C)S(=O)(=O)N(CC(=O)Nc1ccc2c(c1)OCO2)c1ccccc1` [CBK268481]: 110%. Still for that read-out and setting: with `N#C/C(=C\c1ccc(-c2cccc(C(=O)O)c2)o1)c1nc2ncc(Br)cc2[nH]1` [CBK265054] the figure was 96.1%; with `c1ccc(OCCOc2cccnc2N2CCNCC2)cc1` [CBK200000C], 90.1%.

Turning to `CCN1CCCCC1CNC(=O)Cn1nc(C)c(C)c1C` (stereo not drawn) [CBK282208], the viability at 28.5 h, 10 µM was found to be 105%. `CSCC(=O)N1C[C@@H]2C[C@H](C1)c1c(-c3ccc(NC(C)=O)cc3)ccc(=O)n1C2` [CBK289200]: the viability at 28.5 h, 10 µM is 89.7%. On the same count and under the same terms, the same measure for `CNC1CCC2(c3ccc(OC)c(OC)c3)CCN(C)C2C1` (stereo not drawn) [CBK059586C]: 87.3%. On the same count and under the same terms, the same measure for `COc1ccc(S(=O)(=O)N2CCC(C(=O)Nc3ccccc3SC)CC2)cc1C` [CBK267960]: 96.2%; for `CS(=O)(=O)c1ccc2nc(NC(=O)c3ccco3)sc2c1` [CBK287341]: 95.4%; for `CCc1nsc(N2CCC(Oc3cccnc3N(C)C)C2)n1` (stereo not drawn) [CBK304498]: 110%.

In the case of `O=C(O)c1ccc(/C=N/c2ccc(S(=O)(=O)c3ccc(/N=C/c4ccc(C(=O)O)cc4)cc3)cc2)cc1` [CBK262038], the viability at 28.5 h, 10 µM was 92.4%. With `CCCN(C(=O)c1coc(COc2ccc3sc(C)nc3c2)n1)C1CC1` [CBK306878], the viability at 28.5 h, 10 µM was determined as 84%.

`O=C(NC[C@H]1C[C@@H]2CC[N@]1C[C@@H]2CN1CCN(c2ccccn2)CC1)Nc1ccsc1` [CBK289113]: the viability at 28.5 h, 10 µM turned out to be 101%.

Take `COc1cc(F)cc(OC2CCNCC2)c1NC(=O)c1c(-c2ccccc2)noc1C` [CBK050350T]: the viability at 28.5 h, 10 µM came out at 91.8%. On the same count and under the same terms, the same measure for `CC(=O)NC(N(C)S(=O)(=O)c1ccc(C)cc1)C(Cl)(Cl)Cl` (stereo not drawn) [CBK262662]: 93.8%; for `Cc1csc2ncc(C(=O)Nc3cc(C(F)(F)F)ccc3Cl)c(=O)n12` [CBK287465]: 94.4%. On the same count and under the same terms, with `O=C(Nc1cccc(N2CCNCC2)c1)c1cnc2ccccc2c1` [CBK029415T] the figure was 83.2%; with `O=C(c1cc(C2CCCN(Cc3ccccc3)C2)no1)N1CCCC1` (stereo not drawn) [CBK283395], 89.7%. Turning to `CCN1CCN(c2ccc(N3C(=O)N[C@@H](C(C)C)C3=O)cc2)CC1` [CBK287953], the viability at 28.5 h, 10 µM amounted to 87.5%.

With `Cc1nn(C)c(C)c1CN(C)S(=O)(=O)Cc1ccc(F)cc1` [CBK281590], the viability at 28.5 h, 10 µM was determined as 86.8%. On the same count and under the same terms, the same measure for `CC(C)(C)c1cc(CC2(NCc3ccco3)COC2)no1` [CBK289642]: 108%; for `CCOC(=O)N1CCN(c2cc3[nH]c(S)nc3cc2F)CC1` [CBK288444]: 89.9%. Same read-out and setting: with `CCCCC(Sc1ccc2nnc(-c3ccccn3)n2n1)C(=O)O` (stereo not drawn) [CBK287622] the figure was 112%; with `FC(F)(F)c1nc2ccccc2nc1SCc1cccs1` [CBK103728], 105%. As for `N#Cc1ccc(C(=O)Nc2ccc3n(c2=O)C[C@H]2C[C@@H]3CN(C(=O)c3ccccc3)C2)cc1` [CBK289073], the viability at 28.5 h, 10 µM is 109%. The same measure, in the same setting: the same measure for `NC(=O)c1ccc(NC(=O)N2CCCCC2CO)cc1` (stereo not drawn) [CBK156185]: 83%; for `CCN(CC)C(=O)C1CCCN(C(=O)NCC(c2ccccc2)c2ccccc2)C1` (stereo not drawn) [CBK156145]: 94.4%. `C[C@H](NC1=NC(=O)C2(CCN(Cc3ccccc3)CC2)O1)c1ccccc1` [CBK122798T]: the viability at 28.5 h, 10 µM was 88.6%.

In the case of `O=C(Nc1ccc(F)cc1)c1ccccc1NS(=O)(=O)c1cc(Br)c(Cl)s1` [CBK045405], the viability at 28.5 h, 10 µM is 92.8%. With `Cc1ccc(N2C(=O)C(CC(=O)Nc3cccc(F)c3)N(CCc3ccncc3)C2=O)cc1` (stereo not drawn) [CBK268891], the viability at 28.5 h, 10 µM was found to be 96.5%. With `O=C(NC1CCS(=O)(=O)C1)c1cnc2c(Cl)cccc2c1O` (stereo not drawn) [CBK304644], the viability at 28.5 h, 10 µM is 87.4%.

As for `CN(Cc1ccccc1)C(=O)c1c[nH]nc1C1CCCCN1Cc1ccccc1Cl` (stereo not drawn) [CBK285936], the viability at 28.5 h, 10 µM came to 88.1%. `CN(C)c1cccc(-c2cncc(NCCCO)n2)c1` [CBK065619]: the viability at 28.5 h, 10 µM turned out to be 102%.

Take `O=C(NCCC1=CCCCC1)Nc1ccc(SC(F)(F)F)cc1` [CBK043725]: the viability at 28.5 h, 10 µM amounted to 85.7%.

With `O=C1NC2(CCC2)C(=O)N1Cc1coc(-c2cccs2)n1` [CBK305209], the viability at 28.5 h, 10 µM was 95.9%. The same measure, in the same setting: the same measure for `Cc1cc(C(=O)NCCn2ccc(C)n2)c2cccc(Cl)c2n1` [CBK282549]: 79.6%; for `CC(C)C(=O)N[C@H]1C[C@@H](Cc2cc(CN3CCOCC3)on2)C1(C)C` [CBK289248]: 99.8%; for `CC(C)[C@H]1CN(Cc2ccco2)CCN1C(=O)NCc1ccccc1` [CBK284274]: 99.6%. Same read-out and setting: the same measure for `CC(C)Nc1cncc(OCC2CN(C)CCN2C)n1` (stereo not drawn) [CBK115602]: 87.7%.

Consider `O=C(c1ccco1)N1CCC2(CCCNC2)C1` (stereo not drawn) [CBK153233C], for which the viability at 28.5 h, 10 µM came out at 93.8%.

On to `CCc1ccc(N(CC(=O)NCc2ccccn2)S(C)(=O)=O)cc1` [CBK265322], for which the viability at 28.5 h, 10 µM turned out to be 98.8%.

Regarding `Cc1ccc(S(=O)(=O)CC(=O)N2CCCC3(CCN(Cc4ccccc4)C3)C2)cc1` (stereo not drawn) [CBK137098T], the viability at 28.5 h, 10 µM came to 90.7%. For the compound `CCc1cc(C)cc(OCCOc2ccccc2C=C2C(=O)NC(=S)NC2=O)c1` [CBK263579], the viability at 28.5 h, 10 µM (bulk resorufin, single well) is 120%.

`CCN1CCC(Oc2nccnc2OCCN2CCOCC2)CC1` [CBK082931]: the viability at 28.5 h, 10 µM stood at 94.6%. On the same count and under the same terms, with `O=[N+]([O-])c1ccc(C(O)CNC(=S)Nc2ccccc2)cc1` (stereo not drawn) [CBK261086] the figure was 99.8%; with `CC(C)n1c(COc2ccc(OC(F)(F)F)cc2)n[nH]c1=S` [CBK012989], 92.9%. Still for that read-out and setting: the same measure for `NS(=O)(=O)c1ccc(CCNC(=O)c2cc(-c3ccccc3)nc3ccccc23)cc1` [CBK264365]: 96.9%; for `CN(C)c1ccc(/C=N/NC(=O)CSc2nnc(-c3ccccc3)n2-c2ccccc2)cc1` [CBK262263]: 90.2%. As to `Cc1ccc(OCc2nc(C#N)c(NCCCN3CCOCC3)o2)cc1` [CBK266423], the viability at 28.5 h, 10 µM was 112%. Same read-out and setting: with `O=c1cc(N2CCN(CC3(O)CCNC3)CC2)c(-c2ccccc2)n[nH]1` (stereo not drawn) [CBK307088] the figure was 107%.

For `CCOC(=O)c1c(-c2cccs2)csc1NC(=O)CN1CCCCCC1` [CBK265294G], the viability at 28.5 h, 10 µM came out at 106%. In the case of `O=C(Cc1ccccn1)NC(Cc1ccsc1)c1nccs1` (stereo not drawn) [CBK282821], the viability at 28.5 h, 10 µM turned out to be 85.7%. Same read-out and setting: the same measure for `O=c1[nH]c2ncc(-c3cccc4ncccc34)nc2n1CCCO` [CBK065060]: 104%; for `Cc1cc(C)n(CC(=O)N2CCCC2c2cc3cccnc3[nH]2)n1` (stereo not drawn) [CBK285074]: 97.1%. As to `Cn1nccc1C1CCN(Cc2ccc(Oc3cnccn3)cc2)CC1` [CBK306400], the viability at 28.5 h, 10 µM was found to be 104%. The same measure, in the same setting: the same measure for `CCC(C)(C)c1ccc(S(=O)(=O)N2CCN(Cc3cccc4cccnc34)CC2)cc1` [CBK062830]: 98.1%; for `COc1ccc2[nH]c3c(c2c1)CCOC31CCN(C(=O)N[C@@H](C)c2ccccc2)CC1` [CBK047114]: 98.5%; for `COc1ccc(/C=C2/SC(=O)N(CCNC3=NS(=O)(=O)c4ccccc43)C2=O)cc1` [CBK265545]: 83.4%. As to `O=C(O)C(c1c[nH]c2cc(F)ccc12)N1CCN(CC(=O)N2CCOCC2)CC1` (stereo not drawn) [CBK286825], the viability at 28.5 h, 10 µM was 86.5%. Take `O=C(O)CCN1C(=O)c2ccc(NC(=O)CCc3ccccc3)cc2C1=O` [CBK266422]: the viability at 28.5 h, 10 µM was 95.2%. Consider `Cc1c(C(=O)O[C@H]2C[C@@H](c3ccc(F)cc3)N(C)C2=O)cnn1C` [CBK283616], for which the viability at 28.5 h, 10 µM was 103%.
